{"source": "ChEMBL document CHEMBL4261507", "about": "“Pyrazolo[3,4-d]pyrimidines as sigma-1 receptor ligands for the treatment of pain. Part 1: 4-acylamino derivatives” (Medchemcomm, 2017)", "key": {"[1]": {"test": "Apparent permeability in human Caco2 cells", "type": "ADME, cell-based", "conditions": "Caco-2"}, "[2]": {"test": "Lipophilicity, log P of the compound", "type": "physicochemical", "conditions": "octanol/water"}}}
{"compound": "CC(C)(C)C(=O)Nc1ncnc2c1cnn2CCN1CCCCC1", "values": [{"measurement": "Papp", "setting": "[1]", "value": 39, "unit": "×10⁻⁶ cm/s"}, {"measurement": "logP", "setting": "[2]", "value": 2.6}]}
